Values of other authors, collected in US10001469B2, “Use of GPR83 to identify pruritus-related substances” (University of Miyazaki, priority 2010, dated 2018).

Experiments:
[1] = system: HK-1-induced scratching behavior; conditions: pre-administration, Non-patent Documents 7 and 8; cited from earlier work
[2] = system: SP-induced scratching behavior; conditions: pre-administration, Non-patent Documents 7 and 8; cited from earlier work

Ic1ccccc1CN[C@@H]1C2CCN(CC2)[C@@H]1C(c1ccccc1)c1ccccc1 (racemic) [L-703,606]
suppression of HK-1-induced scratching behavior [1]: suppressed
suppression of SP-induced scratching behavior [2]: suppressed
